Paper PMC8839448, “Novel Pyridothienopyrimidine Derivatives: Design, Synthesis and Biological Evaluation as Antimicrobial and Anticancer Agents” (Molecules, 2022)
≈ marks a conversion by molar mass, not a printed value. Where “and” joins values, the source holds several entries; their conditions need not be identical. Equal values may be shown once.

Legend:
[1] = test system: Staphylococcus aureus 25923; assay: In vitro antibacterial activity, MIC by broth dilution; type: cell-based; conditions: Gram +ve bacteria, read-out: MIC S. aureus
Bacillus subtilis 6633 = assay: as above; type: cell-based; conditions: Gram +ve bacteria, read-out: MIC B. subtilis
Bacillus cereus 33018 = assay: as above; type: cell-based; conditions: Gram +ve bacteria, read-out: MIC B. cereus
Escherichia coli 8739 = assay: as above; type: cell-based; conditions: Gram −ve bacteria
[2] = test system: Salmonella typhimurium 14028; assay: as above; type: cell-based; conditions: Salmonella enterica, Gram −ve bacteria, read-out: MIC S. typhimurium
Candida albicans 10231 = assay: In vitro antifungal activity, MIC by broth dilution; type: cell-based; conditions: yeast, read-out: MIC C. albicans
Candida tropicals 750 = assay: as above; type: cell-based; conditions: yeast, read-out: MIC C. tropicals
[3] = test system: Saccharomycese cerevisiae; assay: as above; type: cell-based; conditions: Saccharomyces cerevisiae, yeast, read-out: MIC S. cerevisiae
Aspergillus flavus = assay: as above; type: cell-based; conditions: fungi
[4] = test system: Aspergillus niger EM77 (KF774181); assay: as above; type: cell-based; conditions: fungi
[5] = test system: hepatocellular carcinoma (HepG2) cells; assay: Cytotoxicity, MTT assay; type: cell-based; conditions: Homo sapiens, read-out: Cytotoxic activity IC50 HepG2
[6] = test system: breast cancer (MCF-7) cells; assay: Cytotoxicity, MTT assay; type: cell-based, human; conditions: Homo sapiens, MCF7, MCF7 cells, read-out: Cytotoxic activity IC50 MCF7
[7] = test system: all the tested yeasts and fungi strains; assay: Antifungal MIC, range over the panel; type: cell-based
[8] = Cytotoxicity against normal cells, MTT assay; conditions: human, WISH normal cells
Excerpt: The cytotoxicity was estimated as IC50 in μM for the tested compounds and the reference drug doxorubicin, and are listed in Table 3.

EGFR kinase = EGFR kinase (Homo sapiens, UniProt P00533); assay: In vitro EGFR kinase inhibitory assay (Kinase-Glo MAX kit); conditions: for IC50: EGFR IC50, EGFR kinase assay kit, triplicate, ± SD
Chain of EGFR kinase (P00533 25-1210): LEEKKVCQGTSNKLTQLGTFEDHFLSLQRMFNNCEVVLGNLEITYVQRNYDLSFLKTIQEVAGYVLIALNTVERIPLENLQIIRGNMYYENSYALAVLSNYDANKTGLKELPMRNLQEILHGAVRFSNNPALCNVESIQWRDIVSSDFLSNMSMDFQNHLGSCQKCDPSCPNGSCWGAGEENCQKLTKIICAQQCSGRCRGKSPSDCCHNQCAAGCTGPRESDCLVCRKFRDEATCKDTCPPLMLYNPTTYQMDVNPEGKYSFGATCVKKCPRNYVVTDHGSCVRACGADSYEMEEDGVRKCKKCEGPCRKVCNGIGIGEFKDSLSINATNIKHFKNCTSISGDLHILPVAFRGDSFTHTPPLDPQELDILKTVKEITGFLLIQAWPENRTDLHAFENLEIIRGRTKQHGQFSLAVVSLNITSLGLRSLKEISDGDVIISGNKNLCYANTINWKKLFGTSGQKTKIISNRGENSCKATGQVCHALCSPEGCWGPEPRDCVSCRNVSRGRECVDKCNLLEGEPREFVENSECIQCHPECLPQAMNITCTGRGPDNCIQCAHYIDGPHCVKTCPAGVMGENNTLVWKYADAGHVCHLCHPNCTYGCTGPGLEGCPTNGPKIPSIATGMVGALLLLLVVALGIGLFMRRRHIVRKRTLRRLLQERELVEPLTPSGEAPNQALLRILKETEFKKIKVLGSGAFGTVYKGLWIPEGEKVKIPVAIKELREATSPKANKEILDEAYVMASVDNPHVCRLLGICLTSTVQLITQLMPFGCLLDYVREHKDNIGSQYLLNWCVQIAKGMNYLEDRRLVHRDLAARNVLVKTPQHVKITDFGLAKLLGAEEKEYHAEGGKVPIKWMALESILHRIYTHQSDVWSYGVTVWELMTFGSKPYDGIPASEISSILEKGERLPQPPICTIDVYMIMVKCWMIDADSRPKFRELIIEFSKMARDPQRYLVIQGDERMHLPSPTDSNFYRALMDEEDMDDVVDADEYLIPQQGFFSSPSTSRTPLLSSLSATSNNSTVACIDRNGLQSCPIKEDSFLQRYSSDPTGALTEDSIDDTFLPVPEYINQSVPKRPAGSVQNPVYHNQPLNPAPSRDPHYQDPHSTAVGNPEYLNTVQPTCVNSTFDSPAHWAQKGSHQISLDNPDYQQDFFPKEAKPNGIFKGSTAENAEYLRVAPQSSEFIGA
Description: The assay kit is designed to measure EGFR Kinase activity for screening applications using Kinase-Glo® MAX as a detection reagent. The luminescence was measured using a microplate reader (Infinite M200 microplate reader, Tecan, Männedorf, Switzerland) [54]. All assays were performed in triplicate and the relative inhibition (%) of inhibitors was then calculated via comparison with the control with no inhibitor.
In vitro EGFR kinase assay
The assay Kit is designed to measure EGFR Kinase
activity for screening applications using Kinase-Glo® MAX as a detection reagent
using Kinase-Glo® MAX as a detection reagent. Thaw 5x Kinase Buffer 1: ATP and
PTK substrate Poly (Glu:Tyr 4:1) (10 mg/ml) kinase was provided. Then the master
mixture was prepared: N wells x (6 μl 5x Kinase Buffer 1 + 1 µl ATP (500 µM) + 1
µl PTK substrate Poly (Glu:Tyr 4:1) (10 mg/ml)+ 17 μl water) and 25 μl of the
mixture was added to every well. The tested compounds were dissolved in DMSO,
well labeled as “Positive Control", 5 μl of the same solution of the reference drug
erlotinib and “Blank”, 5 μl of the same solution without inhibitor (Inhibitor buffer).
ml of 1x Kinase Buffer 1) was prepared by mixing 600 µl of 5x Kinase Buffer 1 with
The reaction initiated by adding 20 µl of diluted EGFR enzyme to the wells designated “Positive Control” and "Test Inhibitor Control". Incubate at 30°C for 40
minutes. Thaw Kinase-G lo Max reagent. After the 40 minute reaction, 50 µl of
Kinase-Glo Max reagent was added to each well. The plate was covered with
aluminum foil and incubate at room temperature for 15 minutes. Then the
luminescence was measured using the microplate reader (Infinite M200 microplate
reader, Tecan, Männedorf, Switzerland). All assays were performed in triplicate. The
relative inhibition (%) of inhibitors were then calculated compared to the control with
no inhibitor. Then the IC50 values and their standard deviation (SD) for the tested
compounds and the reference drug were determined in (nM).

five bacterial strains = assay: Antibacterial MIC, range over the panel; type: cell-based

SMILES | MIC [1] | MIC (Bacillus subtilis 6633) | MIC (Bacillus cereus 33018) | MIC (Escherichia coli 8739) | MIC [2] | MIC (Candida albicans 10231) | MIC (Candida tropicals 750) | MIC [3] | MIC (Aspergillus flavus) | MIC [4] | IC50 [5] | IC50 [6] | MIC range against the tested yeasts and fungi strains [7] | melting point | IC50 [8] | IC50 (EGFR kinase) | MIC range against the tested bacterial strains (five bacterial strains) | Fold more potent than erlotinib (EGFR inhibition) (EGFR kinase; relative to erlotinib)
Cc1cc(C)c2c(n1)sc1c(=O)[nH]c(=O)[nH]c12 [Compound 2a, 7,9-Dimethylpyrido[3′,2′:4,5]thieno[3,2-d]pyrimidine-2,4(1H,3H)-dione] | > 128 µg/mL | > 128 µg/mL | 64 µg/mL (≈ 259 µM) | > 128 µg/mL | > 128 µg/mL | 128 µg/mL (≈ 518 µM) | 128 µg/mL (≈ 518 µM) | 16 µg/mL (≈ 64.7 µM) | > 128 µg/mL | > 128 µg/mL | 56.6 ± 3.64 µM | 64.3 ± 2.91 µM | – | – | – | – | – | –
Cc1ccc(-c2cc(-c3ccccc3)nc3sc4c(c23)NC2(CCCC2)N=C4SCC(N)=O)cc1 [Compound 8b, 2-((7′-Phenyl-9′-(p-tolyl)-1′H-spiro[cyclopentane-1,2′-pyrido[3′,2′:4,5]thieno[3,2-d]pyrimidin]-4′-yl)sulfanyl)acetamide] | 4 µg/mL (≈ 8.02 µM) | 8 µg/mL (≈ 16 µM) | 16 µg/mL (≈ 32.1 µM) | 8 µg/mL (≈ 16 µM) | 16 µg/mL (≈ 32.1 µM) | 8 µg/mL (≈ 16 µM) | 16 µg/mL (≈ 32.1 µM) | 16 µg/mL (≈ 32.1 µM) | 8 µg/mL (≈ 16 µM) | 8 µg/mL (≈ 16 µM) | 2.79 ± 0.08 µM | 13.5 ± 0.76 µM | 4 to 16 µg/mL | 148 to 149 °C | 401 ± 17.3 µM | 0.03844 ± 0.00025 µM | – | –
Cc1cc(C)c2c3c(sc2n1)C(SCC(N)=O)=NC1(CCCCC1)N3 [Compound 8a, 2-((7′,9′-Dimethyl-1′H-spiro[cyclohexane-1,2′-pyrido[3′,2′:4,5]thieno[3,2-d]pyrimidin]-4′-yl)sulfanyl)acetamide] | 8 µg/mL (≈ 21.4 µM) | 16 µg/mL (≈ 42.7 µM) | 8 µg/mL (≈ 21.4 µM) | 32 µg/mL (≈ 85.4 µM) | 32 µg/mL (≈ 85.4 µM) | 64 µg/mL (≈ 171 µM) | 16 µg/mL (≈ 42.7 µM) | 16 µg/mL (≈ 42.7 µM) | 16 µg/mL (≈ 42.7 µM) | 16 µg/mL (≈ 42.7 µM) | 6.78 ± 0.73 µM | 20.9 ± 1.46 µM | – | 160 to 161 °C | – | – | 8 to 32 µg/mL | –
Cc1cc(C)c2c(n1)sc1c(=O)[nH]c(CCl)nc12 [Compound 4a, 2-(Chloromethyl)-7,9-dimethylpyrido[3′,2′:4,5]thieno[3,2-d]pyrimidin-4(3H)-one] | 4 µg/mL (≈ 14.3 µM) | 8 µg/mL (≈ 28.6 µM) | 4 µg/mL (≈ 14.3 µM) | 8 µg/mL (≈ 28.6 µM) | 16 µg/mL (≈ 57.2 µM) | 16 µg/mL (≈ 57.2 µM) | 16 µg/mL (≈ 57.2 µM) | 8 µg/mL (≈ 28.6 µM) | 8 µg/mL (≈ 28.6 µM) | 8 µg/mL (≈ 28.6 µM) | 2.99 ± 0.15 µM | 15.4 ± 0.45 µM | 4 to 16 µg/mL | 330 to 331 °C | 460 ± 11.1 µM | 0.027 µM and 0.0536 µM | – | 1.5 fold
Cc1ccc(-c2cc(-c3ccccc3)nc3sc4c(c23)NC2(CCCC2)NC4=S)cc1 [Compound 7b, 7′-Phenyl-9′-(p-tolyl)-1′H-spiro[cyclopentane-1,2′-pyrido[3′,2′:4,5]thieno[3,2-d]pyrimidine]-4′(3′H)-thione] | 64 µg/mL (≈ 145 µM) | 64 µg/mL (≈ 145 µM) | 64 µg/mL (≈ 145 µM) | 64 µg/mL (≈ 145 µM) | 128 µg/mL (≈ 290 µM) | 64 µg/mL (≈ 145 µM) | 64 µg/mL (≈ 145 µM) | 32 µg/mL (≈ 72.5 µM) | 64 µg/mL (≈ 145 µM) | 128 µg/mL (≈ 290 µM) | 39.7 ± 1.89 µM | 41.6 ± 2.2 µM | – | – | – | – | 64 to 128 µg/mL | –
Cc1ccc(-c2cc(-c3ccccc3)nc3sc4c(c23)NC2(CCCCC2)NC4=S)cc1 [Compound 7d, 7′-Phenyl-9′-(p-tolyl)-1′H-spiro[cyclohexane-1,2′-pyrido[3′,2′:4,5]thieno[3,2-d]pyrimidine]-4′(3′H)-thione] | 4 µg/mL (≈ 8.78 µM) | 64 µg/mL (≈ 140 µM) | 64 µg/mL (≈ 140 µM) | 32 µg/mL (≈ 70.2 µM) | 32 µg/mL (≈ 70.2 µM) | 32 µg/mL (≈ 70.2 µM) | 64 µg/mL (≈ 140 µM) | 32 µg/mL (≈ 70.2 µM) | 64 µg/mL (≈ 140 µM) | 64 µg/mL (≈ 140 µM) | 23.2 ± 0.35 µM | 26.6 ± 1.62 µM | – | 178 to 179 °C | – | – | – | –
Cc1ccc(-c2cc(-c3ccccc3)nc3sc4c(Cl)nc(Cl)nc4c23)cc1 [Compound 3b, 2,4-Dichloro-7-phenyl-9-(p-tolyl)pyrido[3′,2′:4,5]thieno[3,2-d]pyrimidine] | 32 µg/mL (≈ 75.8 µM) | 8 µg/mL (≈ 18.9 µM) | 32 µg/mL (≈ 75.8 µM) | 16 µg/mL (≈ 37.9 µM) | 32 µg/mL (≈ 75.8 µM) | 32 µg/mL (≈ 75.8 µM) | 16 µg/mL (≈ 37.9 µM) | 64 µg/mL (≈ 152 µM) | 32 µg/mL (≈ 75.8 µM) | 16 µg/mL (≈ 37.9 µM) | 11.3 ± 0.65 µM | 24.7 ± 1.32 µM | – | 220 °C | – | – | – | –
Cc1ccc(-c2cc(-c3ccccc3)nc3sc4c(=O)[nH]c(=O)[nH]c4c23)cc1 [Compound 2b, 7-Phenyl-9-(p-tolyl)pyrido[3′,2′:4,5]thieno[3,2-d]pyrimidine-2,4(1H,3H)-dione] | 64 µg/mL (≈ 166 µM) | 128 µg/mL (≈ 332 µM) | 64 µg/mL (≈ 166 µM) | 128 µg/mL (≈ 332 µM) | 64 µg/mL (≈ 166 µM) | 64 µg/mL (≈ 166 µM) | 32 µg/mL (≈ 83 µM) | 32 µg/mL (≈ 83 µM) | 32 µg/mL (≈ 83 µM) | 32 µg/mL (≈ 83 µM) | 33.2 ± 1.79 µM | 42.4 ± 2.24 µM | – | 316 to 317 °C | – | – | – | –
